Laboratory results: ChEMBL document CHEMBL1201862, “PubChem BioAssay data set” (2004)
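Results reflect a 48-hour exposure of cells in 96-well plates to compound at five concentrations. GI50 = concentration required for 50% inhibition of growth.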 The source made the active and inactive calls. Cut-off read from the data, not from the text of the source: active = GI50 up to about 1.1 µM and inactive = higher.

Legend:
Experiment in all cases: DTP human tumour cell line panel, 48 h
[1] = test system: Malme-3M
[2] = test system: LOX IMVI
[3] = test system: MCF7
[4] = test system: A549
[5] = test system: SK-MEL-2
[6] = test system: MOLT-4
[7] = test system: OVCAR-8
[8] = test system: OVCAR-5
[9] = test system: K562
[10] = test system: HT-29
[11] = test system: MDA-MB-231
[12] = test system: SK-MEL-5
[13] = test system: 786-0
[14] = test system: UO-31
[15] = test system: RXF 393
[16] = test system: CCRF-CEM
[17] = test system: EKVX
[18] = test system: HCT-15
[19] = test system: SR

Row | Compound | GI50 [1] | GI50 [2] | GI50 [3] | GI50 [4] | GI50 [5] | GI50 [6] | GI50 [7] | GI50 [8] | GI50 [9] | GI50 [10] | GI50 [11] | GI50 [12] | GI50 [13] | GI50 [14] | GI50 [15] | GI50 [16] | GI50 [17] | GI50 [18] [µM] | GI50 [19]
1 | C/C=C/C(C#N)(/C=C/c1ccccc1)OP1(=O)OC(c2ccccc2)C(C)N1C (stereo not given) | 18.9 µM (inactive) | 18.2 µM (inactive) | 22.8 µM (inactive) | 20 µM (inactive) | 18.6 µM (inactive) | 10.9 µM (inactive) | 17.9 µM (inactive) | 20.1 µM (inactive) | 16.4 µM (inactive) | 19.7 µM (inactive) | 17.5 µM (inactive) | 16.9 µM (inactive) | 17.1 µM (inactive) | 17.8 µM (inactive) | 20.7 µM (inactive) | 11 µM (inactive) | 20.6 µM (inactive) |  | 
2 | CC(=O)OCCOCNC(=S)N/N=C(\C)c1cccs1 | > 100 µM (inactive) | > 100 µM (inactive) |  | > 100 µM (inactive) | > 100 µM (inactive) | > 100 µM (inactive) | > 100 µM (inactive) | > 100 µM (inactive) | > 100 µM (inactive) | > 100 µM (inactive) |  | > 100 µM (inactive) | > 100 µM (inactive) | > 100 µM (inactive) | > 100 µM (inactive) | 61.8 µM (inactive) | > 100 µM (inactive) | > 100 | > 100 µM (inactive)
3 | CC(=O)n1c2c(c(=O)n1-c1ccccc1)[S+]([O-])CCC2 (stereo not given) | > 56.4 µM (inactive) | > 58.3 µM (inactive) |  | > 92.9 µM (inactive) | > 84.7 µM (inactive) | 1.25 µM (inactive) | > 100 µM (inactive) | > 100 µM (inactive) | 26.7 µM (inactive) | 69.5 µM (inactive) |  | 62.4 µM (inactive) | 40.7 µM (inactive) | > 100 µM (inactive) | 15.6 µM (inactive) | 7.5 µM (inactive) | > 95.7 µM (inactive) | 21.7 | 4.53 µM (inactive)
4 | O=[N+]([O-])c1ccc(-c2cnc3ccccn23)cc1 | > 100 µM (inactive) | > 100 µM (inactive) |  | > 100 µM (inactive) | > 100 µM (inactive) | > 100 µM (inactive) | > 100 µM (inactive) | > 100 µM (inactive) | > 100 µM (inactive) | > 100 µM (inactive) |  | > 100 µM (inactive) | > 100 µM (inactive) | > 100 µM (inactive) | 24.2 µM (inactive) | > 100 µM (inactive) | > 100 µM (inactive) | > 100 | 84.7 µM (inactive)
5 | Cn1nc(-c2ccccc2NC(=O)C(F)(F)F)c(=O)n(C)c1=S | 37.8 µM (inactive) | 29.9 µM (inactive) |  | 50.5 µM (inactive) | 26.7 µM (inactive) | 22.6 µM (inactive) | 23.9 µM (inactive) | 69.3 µM (inactive) | 15.9 µM (inactive) | 25.8 µM (inactive) |  | > 100 µM (inactive) | 61.9 µM (inactive) | 21.7 µM (inactive) | 39.9 µM (inactive) | 32.6 µM (inactive) | 31.3 µM (inactive) |  | 18.1 µM (inactive)
6 | CCOC(=O)C1Cc2c(ccc(OC)c2OC)C(=O)C1N (stereo not given) | > 100 µM (inactive) | > 100 µM (inactive) |  | > 100 µM (inactive) | > 100 µM (inactive) | 91.4 µM (inactive) | > 100 µM (inactive) | > 100 µM (inactive) | > 100 µM (inactive) | > 100 µM (inactive) |  | > 100 µM (inactive) | > 100 µM (inactive) | > 100 µM (inactive) | > 100 µM (inactive) | > 100 µM (inactive) | 21.5 µM (inactive) | > 100 | 41.2 µM (inactive)
7 | CC(C)(C)OC(=O)C1CC[C@@H](CC(=O)Oc2ccc([N+](=O)[O-])cc2)N1 (stereo not given in full) | > 100 µM (inactive) | > 100 µM (inactive) | > 100 µM (inactive) | > 100 µM (inactive) | > 100 µM (inactive) | > 100 µM (inactive) | > 100 µM (inactive) | > 100 µM (inactive) |  |  | > 100 µM (inactive) | > 100 µM (inactive) | > 100 µM (inactive) | > 100 µM (inactive) | > 100 µM (inactive) | > 100 µM (inactive) | > 100 µM (inactive) | > 100 | 59 µM (inactive)
8 | CC(CNCCCNCCNCCCNCO)[N+](=O)[O-] (stereo not given) | 2.07 µM (inactive) | 14.4 µM (inactive) |  | 21.9 µM (inactive) | 15.5 µM (inactive) | 4.12 µM (inactive) | 14.4 µM (inactive) | 13.9 µM (inactive) | 3.44 µM (inactive) | 21.3 µM (inactive) |  | 16.3 µM (inactive) | 15.7 µM (inactive) | 16.9 µM (inactive) | 15.8 µM (inactive) | 2.75 µM (inactive) | 16 µM (inactive) | 10.8 | 3.39 µM (inactive)
9 | CC(C)SC(NC(=O)C1C(C)(C)CCC1(C)C)C(=O)O (stereo not given) |  | > 100 µM (inactive) | > 100 µM (inactive) | > 100 µM (inactive) | > 100 µM (inactive) | > 10 µM (inactive) | > 100 µM (inactive) | > 100 µM (inactive) | > 100 µM (inactive) |  | > 100 µM (inactive) | > 100 µM (inactive) | > 100 µM (inactive) | > 100 µM (inactive) |  | > 100 µM (inactive) | > 100 µM (inactive) | > 100 | 
